Reference: patent US20260262643A1, “HERBICIDAL BENZOXAZINES” (FMC CORPORATION, priority 2022, published 2026)

Assays:
blackgrass [1] = experiment: Test A preemergence; format: in vivo, Alopecurus myosuroides
Summary of the method: (§1)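 Greenhouse pot test, 10 days. Compound (non-phytotoxic solvent, surfactant) sprayed on soil at seeding or on seedlings at one- to two-leaf stage. Visual injury rated 0–100 against untreated plants.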

pigweed, palmer [2] = experiment: Test A postemergence; format: in vivo, Amaranthus palmeri; details: postemergence, 10 days
Summary of the method: as §1

corn [3] = experiment: Test A postemergence; format: in vivo, Zea mays; details: postemergence, 10 days
Summary of the method: as §1

barnyardgrass = experiment: Test B flooded paddy test; format: in vivo, Echinochloa crus-galli; details: 250 g ai/ha, Flood, 13 days, 0 to 100 scale (0 no effect, 100 complete control)
Summary of the method: (§2)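 Visual scores from 0 (no effect) to 100 (complete kill) were assigned 13 days after treatment by comparison with controls. Seedlings had been treated at two leaves by adding compound to floodwater standing 3 cm deep, kept at that level in the greenhouse.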

goosegrass [4] = experiment: Test A preemergence; format: in vivo, Eleusine indica
Summary of the method: as §1

kochia [5] = experiment: Test A postemergence; format: in vivo, Bassia scoparia; details: postemergence, 10 days
Summary of the method: as §1

ragweed [6] = experiment: Test A postemergence; format: in vivo, Ambrosia artemisiifolia; details: postemergence, 10 days
Summary of the method: as §1

wheat [7] = experiment: Test A preemergence; format: in vivo, Triticum aestivum
Summary of the method: as §1

soybean [8] = experiment: Test A preemergence; format: in vivo, Glycine max
Summary of the method: as §1

ryegrass, Italian [9] = experiment: Test A postemergence; format: in vivo, Lolium multiflorum; details: postemergence, 10 days
Summary of the method: as §1

pigweed, palmer [10] = experiment: Test A preemergence; format: in vivo, Amaranthus palmeri
Summary of the method: as §1

corn [11] = experiment: Test A preemergence; format: in vivo, Zea mays
Summary of the method: as §1

horseweed = experiment: Test A postemergence; format: in vivo, Erigeron canadensis; details: postemergence, 10 days
Summary of the method: as §1

galium = experiment: Test A postemergence; format: in vivo, Galium aparine; details: postemergence, 10 days
Summary of the method: as §1

sedge, umbrella = experiment: Test B flooded paddy test; format: in vivo, Cyperus difformis; details: 250 g ai/ha, Flood, 13 days, 0 to 100 scale (0 no effect, 100 complete control)
Summary of the method: as §2

rice = experiment: Test B flooded paddy test; format: in vivo, Oryza sativa; details: 250 g ai/ha, Flood, 13 days, 0 to 100 scale (0 no effect, 100 complete control)
Summary of the method: as §2

kochia [12] = experiment: Test A preemergence; format: in vivo, Bassia scoparia
Summary of the method: as §1

oat, wild [13] = experiment: Test A preemergence; format: in vivo, Avena fatua
Summary of the method: as §1

wheat [14] = experiment: Test A postemergence; format: in vivo, Triticum aestivum; details: postemergence, 10 days
Summary of the method: as §1

ragweed [15] = experiment: Test A preemergence; format: in vivo, Ambrosia artemisiifolia
Summary of the method: as §1

blackgrass [16] = experiment: Test A postemergence; format: in vivo, Alopecurus myosuroides; details: postemergence, 10 days
Summary of the method: as §1

goosegrass [17] = experiment: Test A postemergence; format: in vivo, Eleusine indica; details: postemergence, 10 days
Summary of the method: as §1

ryegrass, Italian [18] = experiment: Test A preemergence; format: in vivo, Lolium multiflorum
Summary of the method: as §1

soybean [19] = experiment: Test A postemergence; format: in vivo, Glycine max; details: postemergence, 10 days
Summary of the method: as §1

foxtail, giant [20] = experiment: Test A preemergence; format: in vivo, Setaria faberi
Summary of the method: as §1

foxtail, giant [21] = experiment: Test A postemergence; format: in vivo, Setaria faberi; details: postemergence, 10 days
Summary of the method: as §1

ducksalad = experiment: Test B flooded paddy test; format: in vivo, Heteranthera limosa; details: 250 g ai/ha, Flood, 13 days, 0 to 100 scale (0 no effect, 100 complete control)
Summary of the method: as §2

oat, wild [22] = experiment: Test A postemergence; format: in vivo, Avena fatua; details: postemergence, 10 days
Summary of the method: as §1

[23] = 125 g ai/ha, visual injury after 10 days, 0 to 100 scale, 0 is no effect, 100 is complete control
[24] = 500 g ai/ha, 0 to 100 scale (0 no effect, 100 complete control), 10 days
[25] = 125 g ai/ha, 0 to 100 scale, 0 no effect, 100 complete control
[26] = 500 g ai/ha, visual injury, 0 to 100 scale (0 no effect, 100 complete control)

With C[C@H]1CN(C(=O)c2cccc(-n3cnc(C(C)(C)C)n3)c2)c2cccc(Cl)c2O1 [Compound 92] the “Plant response rating, Blackgrass” value (blackgrass [1]; [23]) was 80, the “Plant response rating, Blackgrass” value (blackgrass [1]; [24]) was 90 and the “Pigweed, Palmer plant response rating” value (pigweed, palmer [2]; [25]) was 90. For the same compound, the “Plant response rating, Pigweed, Palmer” value (pigweed, palmer [2]; [26]) was 90, the “Corn plant response rating” value (corn [3]; [25]) was 30 and the “Plant response rating, Corn” value (corn [3]; [26]) was 70. For the same compound, the “Plant response rating, Barnyardgrass” value (barnyardgrass) was 25, the “Plant response rating, Goosegrass” value (goosegrass [4]; [23]) was 100 and the “Plant response rating, Goosegrass” value (goosegrass [4]; [24]) was 100. For the same compound, the “Kochia plant response rating” value (kochia [5]; [25]) was 80, the “Plant response rating, Kochia” value (kochia [5]; [26]) was 90 and the “Ragweed plant response rating” value (ragweed [6]; [25]) was 60. The “Plant response rating, Ragweed” value (ragweed [6]; [26]) was 70, the “Plant response rating, Wheat” value (wheat [7]; [23]) was 30 and the “Plant response rating, Wheat” value (wheat [7]; [24]) was 80. For the same compound, the “Plant response rating, Soybean” value (soybean [8]; [23]) was 50, the “Plant response rating, Soybean” value (soybean [8]; [24]) was 90 and the “Ryegrass, Italian plant response rating” value (ryegrass, Italian [9]; [25]) was 50. The “Plant response rating, Ryegrass, Italian” value (ryegrass, Italian [9]; [26]) was 100, the “Plant response rating, Pigweed, Palmer” value (pigweed, palmer [10]; [23]) was 100 and the “Plant response rating, Pigweed, Palmer” value (pigweed, palmer [10]; [24]) was 100. The “Plant response rating, Corn” value (corn [11]; [23]) was 30, the “Plant response rating, Corn” value (corn [11]; [24]) was 30 and the “Horseweed plant response rating” value (horseweed; [25]) was 0. For the same compound, the “Plant response rating, Horseweed” value (horseweed; [26]) was 50, the “Galium plant response rating” value (galium; [25]) was 100 and the “Plant response rating, Galium” value (galium; [26]) was 100. The “Plant response rating, Sedge, Umbrella” value (sedge, umbrella) was 0, the “Plant response rating, Rice” value (rice) was 0 and the “Plant response rating, Kochia” value (kochia [12]; [23]) was 70. The “Plant response rating, Kochia” value (kochia [12]; [24]) was 100, the “Plant response rating, Oat, Wild” value (oat, wild [13]; [23]) was 80 and the “Plant response rating, Oat, Wild” value (oat, wild [13]; [24]) was 90. For the same compound, the “Wheat plant response rating” value (wheat [14]; [25]) was 40, the “Plant response rating, Wheat” value (wheat [14]; [26]) was 50 and the “Plant response rating, Ragweed” value (ragweed [15]; [23]) was 0. For the same compound, the “Plant response rating, Ragweed” value (ragweed [15]; [24]) was 30, the “Blackgrass plant response rating” value (blackgrass [16]; [25]) was 70 and the “Plant response rating, Blackgrass” value (blackgrass [16]; [26]) was 90. For the same compound, the “Goosegrass plant response rating” value (goosegrass [17]; [25]) was 30, the “Plant response rating, Goosegrass” value (goosegrass [17]; [26]) was 50 and the “Plant response rating, Ryegrass, Italian” value (ryegrass, Italian [18]; [23]) was 100. For the same compound, the “Plant response rating, Ryegrass, Italian” value (ryegrass, Italian [18]; [24]) was 100, the “Soybean plant response rating” value (soybean [19]; [25]) was 90 and the “Plant response rating, Soybean” value (soybean [19]; [26]) was 100. The “Plant response rating, Foxtail, Giant” value (foxtail, giant [20]; [23]) was 70, the “Plant response rating, Foxtail, Giant” value (foxtail, giant [20]; [24]) was 100 and the “Foxtail, Giant plant response rating” value (foxtail, giant [21]; [25]) was 30. The “Plant response rating, Foxtail, Giant” value (foxtail, giant [21]; [26]) was 80, the “Plant response rating, Ducksalad” value (ducksalad) was 90 and the “Oat, Wild plant response rating” value (oat, wild [22]; [25]) was 50. For the same compound, the “Plant response rating, Oat, Wild” value (oat, wild [22]; [26]) was 70.
